# In patent US20120052010A1, “IMAGING TUMOR PERFUSION, OXIDATIVE […] DYNAMIC ACE PET IN PATIENTS WITH HEAD AND NECK CANCER DURING RADIOTHERAPY” (GE HEALTHCARE LIMITED, priority 2009, published 2012):
# “And” between values parts separate entries of the source, which are not always exact repeats. Equal values may be shown once.
# Columns and labels:
# [1] = resting normal volunteers, myocardial O2 consumption 3-4 micromole/min/gram; cited from earlier work
# [2] = system: primary tumor, squamous cell carcinoma of the head and neck; experiment: Dynamic ACE PET, tumor perfusion (absolute extraction rate and relative perfusion index rF); type: in vivo, human
# Experimental: In a subset of ACE scan sessions (n=23) an image-derived arterial input function for absolute quantification of tumor perfusion was acquired by dynamic imaging of the heart immediately after injection of a 0.5 MBq/kg body weight ACE bolus.
# (§1) Ten minutes after the heart scan, the head and neck region was imaged immediately after an intravenous bolus injection of 10 MBq/kg body weight ACE. The scan time was 32 minutes with time frames 12×5 seconds (s), 6×10 s, 4×30 s, 4×60 s, 2×120 s and […].
# The arterial blood input function was derived by placing a small ROI in the left ventricular cavity of the heart scan to obtain a TAC of the first pass of the bolus. Arterial blood activities were integrated by the area-under-the-curve of the first bolus passage through the chamber and normalized to the injected dose of the subsequent tumor scan.
# The peak activity of the primary tumor deposited at the end of the first bolus pass was assessed. The absolute extraction rate (in mL/min/mL tissue) was calculated by dividing the first-pass peak tumor activity by the arterial blood integral, assuming that systemic circulation was unaltered between the heart and tumor scan. As the arterial input was not obtained in all sessions, a relative perfusion index (rF) was quantified by the ratio of initial peak retention in the tumor to that of the cerebellum. […] Absolute quantification of tumor perfusion in 23 scans yielded a mean of 0.47±0.01 mL/min/mL The mean of simultaneous rF measurements was 5.87±0.39 and the two methods were linearly correlated (r=0.57, p=0.005).
# [3] = system: primary tumor, squamous cell carcinoma of the head and neck; experiment: Dynamic ACE PET, tumor clearance rate of [11C] (tumor oxidative metabolism, OXm); type: in vivo, human
# Experimental: Twenty nine dynamic ACE PET scans were performed in the nine patients. Five patients were scanned with a dedicated PET device (Siemens ECAT HR^+, Knoxyille, Tenn., USA) and PET images were coregistered to dose-planning CT images for anatomical localization. Four patients were scanned with a hybrid PET-CT device (GE Discovery ST, Milwaukee, Wis., USA). ACE PET was studied in all patients within 7 days before the start of radiotherapy (baseline). Due to logistic problems not all patients could be scanned at all subsequent time points. Five patients were scanned after a mean dose of 15 Gy (dose range 9.6-20Gy), 7 patients after a mean dose of 30 Gy (range 24-37Gy) and 8 patients after a mean dose of 55 Gy (range 42-68Gy).
# as §1
# Primary tumors were clearly visualized in all scans. A time-activity curve (TAC) of the primary tumor was obtained from a region of interest (ROI) delineating the highest uptake in all ACE scans. TACs were analyzed by fitting an exponential curve to the data collected between 4 and 32 min Tumor oxidative metabolism was derived from the below equation.
# where Y is the tumor radioactivity (Bq/cc), A is a constant, t is time (min), and OXm is the clearance rate of [^11C] in min^−1. The average R^2 of the fit was 0.93.
# [4] = system: primary tumor, squamous cell carcinoma of the head and neck; experiment: FDG-PET tumor glucose uptake (Tglu); type: in vivo, human
# Experimental: FDG-PET was performed at baseline using a standard clinical whole-body protocol, in which the head and neck area was scanned one hour after intravenous injection of 5 MBq/kg body weight FDG. Baseline ACE and FDG scans were performed on the same or adjacent days.
# Whole-body scanning was performed one hour after intravenous injection of 5 MBq/kg body weight FDG. Six patients were examined by PET/CT and four patients were studied by PET alone. The patients were instructed to remain recumbent and avoid voicing and other uses of neck muscles during the uptake period.
# Tumor glucose uptake (Tglu) was measured from the FDG data as standard uptake values (SUV), determined by the radioactivity concentration of the tumor ROI, divided by injected activity per gram body weight.
smiles,measurement,setting,value
"C[11C](=O)O [ACE, 1-[^11C]-Acetate]",OXm values in myocardium,[1],0.05 to 0.07 min⁻¹
same,mean of simultaneous rF measurements,[2]; 23 scans with absolute quantification,5.87±0.39
same,"absolute quantification of tumor perfusion (absolute ACE extraction rate), mean","[2]; 23 scans, arterial input from left ventricular blood pool imaging",0.47 mL/min/mL and 0.47±0.01 mL/min/mL
same,"rF, Mean ± SE","[2]; CR group, 15 Gy",7.87
same,"rF, Mean ± SE","[2]; CR group, 30 Gy",7.29
same,"rF, Mean ± SE","[2]; CR group, 55 Gy",5.00
same,"rF, Mean ± SE","[2]; CR group, Baseline",5.68
same,"rF, Mean ± SE","[2]; PR group, 30 Gy",6.61
same,"rF, Mean ± SE","[2]; PR group, 55 Gy",4.51
same,"rF, Mean ± SE","[2]; PR group, Baseline",6.42
same,extraction rate in cerebellum (reference region),[2]; all patients,0.08±0.03 mL/min/mL
same,primary tumor rF (relative perfusion),"[2]; individual patients (CR and PR), 15 Gy",6.93 and 5.00 and 8.22 and 7.07 and 9.25
same,primary tumor rF (relative perfusion),"[2]; individual patients (CR and PR), 30 Gy",8.51 and 7.39 and 8.48 and 3.95 and 8.06 and 6.54 and 6.05
same,primary tumor rF (relative perfusion),"[2]; individual patients (CR and PR), 55 Gy",5.78 and 5.00 and 6.34 and 2.20 and 2.81 and 7.76 and 3.64
same,"primary tumor rF (relative perfusion, tumor/cerebellum initial peak retention)","[2]; individual patients (CR and PR), Baseline",4.10 and 7.63 and 6.47 and 5.17 and 6.26 and 4.90 and 3.96 and 5.91 and 8.93
same,"OXm, Mean ± SE","[3]; CR group, 15 Gy, N=4",0.0142 min⁻¹
same,"OXm, Mean ± SE","[3]; CR group, 30 Gy, N=4",0.0144 min⁻¹
same,"OXm, Mean ± SE","[3]; CR group, 55 Gy, N=5",0.0140 min⁻¹
same,"OXm, Mean ± SE","[3]; CR group, Baseline, N=6",0.0122 min⁻¹
same,"OXm, Mean ± SE","[3]; PR group, 30 Gy, N=3",0.0126 min⁻¹
same,"OXm, Mean ± SE","[3]; PR group, 55 Gy, N=3",0.0110 min⁻¹
same,"OXm, Mean ± SE","[3]; PR group, Baseline, N=3",0.0065 min⁻¹
"OC[C@H]1OC(O)[C@H]([18F])[C@@H](O)[C@@H]1O (stereo partly drawn) [FDG, ^18F-fluoro-2-deoxy-D-glucose]","Tglu (tumor glucose uptake, standard uptake value)","[4]; individual patients, baseline FDG-PET, one hour after i.v. 5 MBq/kg FDG",4.6 SUV and 13.4 SUV and 8.5 SUV and 6.8 SUV and 4.9 SUV and 16.3 SUV and 13.8 SUV and 3.9 SUV and 26.1 SUV
same,"Tglu, all primary tumors","[4]; nine patients, baseline",10.9±2.4 SUV
